Some results are limits rather than exact numbers.

The subject of one test is CHOP. The experiment in a line: Immunoblotting of CHOP signaling pathways in HeLa cells. Format: cell-based, human. The procedure: The concentration of the soluble protein fraction was measured by BCA protein assay kit (Thermo; #23225).
The next test deals with HeLa. The experiment in a line: Cell viability assay (Ez-cytox; Table 1 says MTT), HeLa. It is filed as cell-based, human. The following applies: cervical cancer; treated 2 days; mean ± SD (n = 3). The procedure:
(§1) HeLa (ATCC; CCL-2) and CaSki (ATCC; CRL-1550) were cultured in Roswell Park Memorial Institute (RPMI) 1,640 Medium (Gibco; #11875-093) supplemented with heat-inactivated 10% fetal bovine serum (FBS) (Gibco; #16000-044), and 1% penicillin (100 units/mL)/streptomycin (100 μg/mL) solution (Gibco; #15240-062). A375P (ATCC; CRL-3224), HEK293T (ATCC; […] CRL-2541) were cultured in Dulbecco's Modified Eagle's Medium (DMEM) (Gibco; #11995-065) supplemented with heat-inactivated 10% FBS (Gibco; #16000-044), and 1% penicillin/streptomycin solution (Gibco; #15240-062). All types of cells were maintained in 100-mm cell culture dishes in a humidified atmosphere of a 5% CO2 incubator at 37°C. All cells were cultured every 2 days using trypsin (Gibco; #12605-010). […] BF-400-S). […] […]), carboplatin (Sigma; […] After changing the culture medium to 100 μL of fresh culture medium, 10 μL of Ez-cytox solution (Dogen; EZ-BULK150) was added to the 96-well plate. […] Synergy).

Another test relates to Caski. The test is described as follows: Cell viability assay, CaSki. It is filed as cell-based, human. The following applies: cervical cancer; treated 2 days; mean ± SD (n = 3). The protocol:
as §1

The next test concerns A375P. The experiment in a line: Cell viability assay, A375P. It is filed as cell-based, human. The following applies: skin melanoma; treated 2 days; mean ± SD (n = 3). The procedure:
as §1

The next test relates to HEK293T. The test is described as follows: Cell viability assay, HEK293T. To be noted: embryonic kidney cells (non-cancer); treated 2 days; mean ± SD (n = 3). Format: cell-based, human. The protocol:
as §1

In the next test the test system is C8-D1A. The experiment in a line: Cell viability assay, C8-D1A. It is filed as cell-based, murine. The following applies: normal astrocyte; treated 2 days; mean ± SD (n = 3). The procedure: as §1
The subject of test [1] is HeLa cells. The experiment in a line: ICP-MS metal accumulation in DNA and proteins of HeLa cells. It is filed as cell-based, human. The following applies: 10 μM, 1, 2, 4 and 8 h. The procedure:
After washing with 1× phospho-buffered saline (PBS, Welgene; ML008-02), HeLa cells harvested by trypsinization (Gibco; #12605-010) were used for either protein or DNA extraction. […] The concentration of the soluble protein fraction was measured by BCA (bicinchoninic acid) protein assay kit (Thermo; #23225). Cell lysates were digested in concentrated HNO3 at 160°C for 3 h and rested at room temperature overnight. The digested cell lysates were diluted in DW to make the final concentration of HNO3 less than 5%. […] The metal accumulations in proteins were expressed as ng Pt or Re/mg protein. In order to quantify metal accumulations in DNA, cells were re-suspended in 300 μL of lysis buffer [100 mM NaCl, 25 mM EDTA (Acros; #11843-5000), 0.5% SDS (w/v) (Acros; #230420100), 0.1 mg/ml proteinase K (Merck; #70663-4CN), and 10 mM Tris-HCl, pH 8.0] and incubated at 50°C overnight. A 300 μL of phenol:chloroform:isoamyl alcohol mixture (25:24:1, Sigma; #77617) was added to cell lysates and shaken vigorously. After centrifugation at 13,000 g for 5 min, upper layer containing DNA, out of two layers, was transferred to a new tube. […] DNA concentration was quantified by measuring the absorbance at 260 nm. […] Metal contents in DNA were quantified by ICP-MS as same method as measuring metal contents in protein. The metal accumulations in DNA were expressed as ng Pt or Re/mg DNA.

Test [2] deals with HeLa cells. The experiment in a line: Mitochondrial monitoring in live HeLa cells (mitochondrial fission). To be noted: 10 μM TRIP, 50 μM Mdivi-1 pre-treated 1 h.
Test [3] concerns HeLa cells. The experiment in a line: Flow cytometry apoptosis analysis (Annexin V-FITC) in HeLa cells. Format: cell-based, human. To be noted: 10 μM TRIP or 50 μM etoposide, 24 h. For orientation: Flow cytometry measures light scatter and fluorescence of single cells or particles in a stream.
Description: HeLa cells were treated with each compound for the designated time and dose, or transfected with siRNAs using Lipofectamine RNAiMAX (Thermo; #15338100). The cells were trypsinized and re-suspended in PBS containing 2% FBS (Gibco; #16000-044). To measure mitochondrial reactive oxygen species (ROS) and polarization, we stained the same number of re-suspended cells with either 2.5 μM of mitoSOX (Invitrogen; M36008) or 500 nM of TMRE (tetramethylrhodamine ethyl ester) (Invitrogen; T669) at 37°C for 1 h. To measure apoptosis, we also stained the same number of re-suspended cells with Annexin V-FITC Apoptosis Staining and Detection Kit (Abcam; ab14085) according to the manufacturer’s protocol. The stained cells were subjected to flow cytometry analysis using FACSAria II (BD).

For the compound `C/C=C(/C)C(=O)O[C@H]1C(C)=C2[C@H]([C@@H]1OC(=O)CCCCCCC)[C@@](C)(OC(C)=O)C[C@H](OC(=O)CCC)[C@@]1(O)[C@H]2OC(=O)[C@@]1(C)O` [thapsigargin], the “time to activation of p-eIF2α/ATF4 signaling pathway” value with CHOP (200 nM thapsigargin) is not above 1 h. Also, the “time after which CHOP activation was observed” value in the test with CHOP (200 nM thapsigargin or 10 μM TRIP) amounted to 2 h.
For orientation: IC50 means the concentration needed to halve the response being measured. `N.N.[Cl][Pt][Cl]` [Cisplatin, cisplatin]: the 50% inhibitory concentration (IC50) with HeLa was found to be 9.2 ± 0.38 µM; in the test on Caski it was 7.89 ± 0.26 µM; with A375P, 8.35 ± 0.37 µM; with HEK293T, 8.33 ± 0.3 µM; in the test with C8-D1A it was 10.2 ± 0.23 µM. Also, the “metal accumulation in DNA and proteins (Pt for cisplatin, Re for TRIP)” value in the test on HeLa cells [1] is recorded as “induced the DNA platination in a time-dependent manner”.
`COc1cc(-n2c(=S)[nH]c3ccccc3c2=O)c(Cl)cc1Cl` [Mdivi-1]: the “effect on TRIP-induced CHOP activation” value in the test on CHOP (50 μM Mdivi-1 co-treatment with TRIP) was “accelerated TRIP-induced CHOP activation”. In addition, the “effect on thapsigargin-induced CHOP activation” value with CHOP (Mdivi-1 co-treatment with thapsigargin) is “did not boost thapsigargin-induced CHOP activation”. In the test with HeLa cells [2], the mitochondrial fission entry was “could be blocked by Mdivi-1 treatment”.
`N.N.O=C([O-])C1(C(=O)[O-])CCC1.[Pt+2]` [Carboplatin, carboplatin]: the IC50 in the test on HeLa is 40.5 ± 2.62 µM; in the test with Caski it was 22.73 ± 0.2 µM; in the test with A375P, 23 ± 0.85 µM; in the test with HEK293T it was 49.6 ± 6.99 µM; in the test with C8-D1A it was 23.66 ± 0.21 µM.
With `COc1cc([C@@H]2c3cc4c(cc3[C@@H](O[C@@H]3O[C@@H]5CO[C@@H](C)O[C@H]5[C@H](O)[C@H]3O)[C@H]3COC(=O)[C@H]23)OCO4)cc(OC)c1O` [Etoposide, etoposide], the “mode of cell death” value with HeLa cells [3] is on record as “via apoptosis, not necrosis”.
